Data: patent publication US9862676B2, “Hydroxamic acid derivative or salt thereof” (TOYAMA CHEMICAL CO., LTD., priority 2013, dated 2018)
≈ marks a conversion by molar mass, not a printed value.

Experiments:
Type in all cases: cell-based
[1] = Test on inhibition of Vero cell growth (XTT); details: African green monkey, Vero cells, 3 days culture, read-out: CC50 (concentration inhibiting 50% of cell growth)
Protocol: Each test compound was dissolved in dimethyl sulfoxide, adjusted to each concentration using E'MEM, and then dispensed at 0.1 mL/well to 96-well microplates. The Vero cell suspension was prepared at 3×10^4 cells/mL using E'MEM supplemented with 20% FBS, inoculated thereto at 0.1 mL/well, and cultured at 37° C. for 3 days under 5% CO2. At the completion of the culture, PBS supplemented with 1 mg/mL 2,3-bis-(2-methoxy-4-nitro-5-sulfophenyl)-5-((phenylamino)carbonyl)-2H-tetrazolium inner salt monosodium salt (XTT) and 25 μM phenazine methosulfate (PMS) was prepared and added thereto at 50 μL/well. Approximately 2 hours later, the absorbance at 450 nm was measured using a microplate reader.

[2] = tested on: Pseudomonas aeruginosa ATCC27853 strain; assay: Antibacterial activity, MIC by broth microdilution (CLSI)
Protocol: (§1) The minimum inhibitory concentration (MIC) was measured according to the CLSI (Clinical and Laboratory Standards Institute) standard method using a broth microdilution method given below. The bacteria used were a Pseudomonas aeruginosa ATCC27853 strain, an Escherichia coli ATCC25922 strain and a Klebsiella pneumoniae ATCC13883 strain. Test bacterial cells of each strain cultured overnight in a Mueller-Hinton agar medium were scraped off and suspended at the McFarland 0.5 standard, and this suspension was diluted 10-fold to prepare an inoculum solution. The inoculum solution (0.005 mL) was inoculated to a cation-adjusted Mueller-Hinton medium containing each test compound and cultured at 35° C. for 16 to 20 hours. The minimum drug concentration at which bacterial growth was not visible to the naked eye was defined as MIC.

[3] = tested on: Escherichia coli ATCC25922 strain; assay: as above
Protocol: as §1

Row | SMILES | MIC [2] [µg/mL] | MIC [3] [µg/mL] | CC50 at 3 days [1] [µg/mL]
1 | CNC(=O)[C@@](C)(C(=O)NO)N(C)C(=O)c1ccc(C#Cc2ccc(COC(CO)CO)cc2)cc1 [Example 5, (2S)—N-hydroxy-2-((4-((4-((2-hydroxy-1-(hydroxymethyl)ethoxy)methyl)phenyl)ethynyl)benzoyl)(methyl)amino)-N′,2-dimethylmalonamide] |  |  | ≥ 100
2 | CNC(=O)[C@@](C)(C(=O)NO)N(C)C(=O)c1ccc(C#Cc2ccc(C(CO)CO)cc2)cc1 [Example 6, (2S)—N-hydroxy-2-((4-((4-(2-hydroxy-1-(hydroxymethyl)ethyl)phenyl)ethynyl)benzoyl)(methyl)amino)-N′,2-dimethyl-malonamide] |  |  | ≥ 100
3 | CNC(=O)[C@@](C)(C(=O)NO)N(C)C(=O)c1ccc(C#Cc2ccc(C(CO)OC)cc2)cc1 (stereo partly drawn) [Example 9, (2S)—N-hydroxy-2-((4-((4-(2-hydroxy-1-methoxyethyl)phenyl)ethynyl)benzoyl)(methyl)amino)-N′,2-dimethyl-malonamide] |  | 0.5 (≈ 1.1 µM) | ≥ 100
4 | CNC(=O)[C@@](C)(C(=O)NO)N(C)C(=O)c1ccc(C#Cc2ccc(CC(O)CO)cc2)cc1 (stereo partly drawn) [Example 15, (2S)-2-((4-((4-(2,3-dihydroxypropyl)phenyl)ethynyl)benzoyl)(methyl)amino)-N-hydroxy-N′,2-dimethylmalonamide] | 1 (≈ 2.21 µM) |  | 
5 | CNC(=O)[C@@](C)(C(=O)NO)N(C)C(=O)c1ccc(C#Cc2ccc(CC(CO)CO)cc2)cc1 [Example 18, (2S)—N-hydroxy-2-((4-((4-(3-hydroxy-2-(hydroxymethyl)propyl)phenyl)ethynyl)benzoyl)(methyl)amino)-N′,2-dimethyl-malonamide] | 1 (≈ 2.14 µM) |  | 
6 | CNC(=O)[C@@](C)(C(=O)NO)N(C)C(=O)c1ccc(C#Cc2ccc([C@@H](O)CO)c(F)c2)cc1 [Example 26, (2S)-2-((4-((4-(1,2-dihydroxyethyl)-3-fluorophenyl)ethynyl)benzoyl)(methyl)amino)-N-hydroxy-N′,2-dimethyl-malonamide] | 1 (≈ 2.19 µM) |  | 

Further lines, with some results ahead:

Row | MIC [2] [µg/mL] | MIC [3] [µg/mL] | SMILES | CC50 at 3 days [1] [µg/mL]
7 | 1 (≈ 2.07 µM) |  | CNC(=O)[C@@](C)(C(=O)NO)N(C)C(=O)c1ccc(C#Cc2ccc(COCC(O)CO)cc2)cc1 (stereo partly drawn) [Example 2, (2S)-2-((4-((4-((2,3-dihydroxypropoxy)methyl)phenyl)ethynyl)benzoyl)(methyl)amino)-N-hydroxy-N′,2-dimethylmalonamide] | ≥ 100
8 |  | 0.5 (≈ 1.07 µM) | CNC(=O)[C@@](C)(C(=O)NO)N(C)C(=O)c1ccc(C#Cc2ccc(C(C)OCCO)cc2)cc1 (stereo partly drawn) [Example 21, (2S)—N-hydroxy-2-((4-((4-(1-(2-hydroxyethoxy)ethyl)phenyl)ethynyl)benzoyl)(methyl)amino)-N′,2-dimethyl-malonamide] | 
9 | 1 (≈ 2.07 µM) |  | CNC(=O)[C@@](C)(C(=O)NO)N(C)C(=O)c1ccc(C#Cc2ccc(C(O)COCCO)cc2)cc1 (stereo partly drawn) [Example 22, (2S)—N-hydroxy-2-((4-((4-(1-hydroxy-2-(2-hydroxyethoxy)ethyl)phenyl)ethynyl)benzoyl)(methyl)amino)-N′,2-dimethyl-malonamide] | ≥ 100
10 | 1 (≈ 1.99 µM) |  | CNC(=O)[C@@](C)(C(=O)NO)N(C)C(=O)c1ccc(C#Cc2ccc(C(O)COCCO)c(F)c2)cc1 (stereo partly drawn) [Example 27, (2S)-2-((4-((3-fluoro-4-(1-hydroxy-2-(2-hydroxyethoxy)ethyl)phenyl)ethynyl)benzoyl)(methyl)amino)-N-hydroxy-N′,2-dimethylmalonamide] | 
11 | 1 (≈ 2.21 µM) | 0.5 (≈ 1.1 µM) | CNC(=O)[C@@](C)(C(=O)NO)N(C)C(=O)c1ccc(C#Cc2ccc([C@@H](O)CCO)cc2)cc1 [Example 32, (2S)-2-((4-((4-((1S)-1,3-dihydroxypropyl)phenyl)ethynyl)benzoyl)(methyl)amino)-N-hydroxy-N′,2-dimethyl-malonamide] | 
12 |  | 0.25 (≈ 0.59 µM) | CNC(=O)[C@@](C)(C(=O)NO)N(C)C(=O)c1ccc(C#Cc2ccc([C@H](C)O)cc2)cc1 [Example 38, (2S)—N-hydroxy-2-((4-((4-((1S)-1-hydroxyethyl)phenyl)ethynyl)benzoyl)(methyl)amino)-N′,2-dimethyl-malonamide] | 
